According to ChEMBL document CHEMBL4020806, “Evaluation of the antiprotozoan properties of 5'-norcarbocyclic pyrimidine nucleosides” (Bioorg Med Chem Lett, 2017):

Key:
Format in all cases: functional
[1] = tested on: Trypanosoma brucei; assay: Antiprotozoal activity against bloodstream form of wild type Trypanosoma brucei after 16 hrs by Alamar Blue assay
[2] = tested on: Trypanosoma brucei; assay: Resistance factor, ratio of EC50 for 5FU resistant Trypanosoma brucei to EC50 for wild type Trypanosoma brucei
[3] = tested on: Leishmania mexicana; assay: Resistance factor, ratio of EC50 for 5FU resistant Leishmania mexicana to EC50 for wild type Leishmania mexicana
[4] = tested on: Trypanosoma brucei; assay: Resistance factor, ratio of EC50 for PYR6-5 deficient bloodstream form of 5-FU hypersensitive Trypanosoma brucei to EC50 for wild type Trypanosoma brucei
[5] = tested on: Trypanosoma brucei; assay: Antiprotozoal activity against bloodstream form of 5FU resistant Trypanosoma brucei after 16 hrs by Alamar Blue assay
[6] = tested on: Trypanosoma brucei; assay: Antiprotozoal activity against PYR6-5 deficient bloodstream form of 5-FU hypersensitive Trypanosoma brucei after 16 hrs by Alamar Blue assay
[7] = tested on: Trypanosoma brucei; assay: Resistance factor, ratio of EC50 for multi-drug resistant Trypanosoma brucei B48 to EC50 for wild type Trypanosoma brucei
[8] = tested on: Leishmania mexicana; assay: Antileishmanial activity against 5FU resistant Leishmania mexicana after 16 hrs by Alamar Blue assay
[9] = tested on: Trypanosoma brucei; assay: Antiprotozoal activity against bloodstream form of multi-drug resistant Trypanosoma brucei B48 after 16 hrs by Alamar Blue assay; settings: B48, 16 h
[10] = tested on: Leishmania mexicana; assay: Antileishmanial activity against wild type Leishmania mexicana after 16 hrs by Alamar Blue assay

| SMILES | EC50 [1] | Ratio EC50 [2] | Ratio EC50 [3] | Ratio EC50 [4] | EC50 [5] | EC50 [6] | Ratio EC50 [7] | EC50 [8] | EC50 [9] | EC50 [10] |
| --- | --- | --- | --- | --- | --- | --- | --- | --- | --- | --- |
| CCCCCCCCCCCCC#Cc1cn([C@H]2C=C[C@@H](O)C2)c(=O)n([C@H]2C=C[C@@H](O)C2)c1=O | 8 µM | 0.94 | 0.97 | 1.15 | 7.5 µM | 9.2 µM | 1.1 | 11.4 µM | 9 µM | 11.8 µM |
| Cc1cc(=O)[nH]c(=O)n1[C@H]1C=C[C@@H](O)C1 | 35.1 µM | 0.82 | 1.04 | 0.92 | 28.8 µM | 32.2 µM | 1.1 | 102 µM | 38.7 µM | 97.7 µM |
| Cc1cc(=O)[nH]c(=O)n1[C@H]1C=C[C@@H](OC(=O)c2ccccc2)C1 | 37.6 µM | 0.85 | 1.01 | 0.91 | 32 µM | 34.3 µM | 1 | 94.9 µM | 38.1 µM | 94.1 µM |
| Cc1cc(=O)n(C(=O)c2ccccc2)c(=O)n1[C@H]1C=C[C@@H](OC(=O)c2ccccc2)C1 | 33.1 µM | 0.84 | 0.86 | 0.98 | 27.7 µM | 32.3 µM | 1 | 22.6 µM | 34 µM | 26.1 µM |
| O=c1[nH]c(=O)n([C@H]2C=C[C@@H](O)C2)cc1I | 35.3 µM | 0.87 | 1 | 0.95 | 30.8 µM | 33.5 µM | 1 | 95.6 µM | 36.2 µM | 95.2 µM |
| O=C(O[C@@H]1C=C[C@H](n2ccc(=O)[nH]c2=O)C1)c1ccccc1 | 38.3 µM | 0.84 | 1.01 | 0.93 | 32.3 µM | 35.6 µM | 1 | 95.7 µM | 38.1 µM | 94.8 µM |
| Cc1cc(C)cc(Cn2c(=O)cc(C)n([C@H]3C=C[C@@H](OC(=O)c4ccccc4)C3)c2=O)c1 | 15.1 µM | 0.95 | 1.11 | 1.03 | 14.3 µM | 15.6 µM | 0.9 | 28.5 µM | 14 µM | 25.6 µM |
| Cc1cc(C)cc(C(=O)O[C@@H]2C=C[C@H](n3ccc(=O)n(Cc4ccccc4)c3=O)C2)c1 | 8.6 µM | 1.01 | 0.79 | 1.29 | 8.7 µM | 11.1 µM | 1 | 25.1 µM | 8.7 µM | 31.8 µM |
| O=c1ccn([C@H]2C=C[C@@H](O)C2)c(=O)[nH]1 | 37.6 µM | 0.85 | 1.01 | 0.92 | 31.9 µM | 34.6 µM | 1 | 97.9 µM | 37.9 µM | 97 µM |
| O=C(O[C@@H]1C=C[C@H](n2ccc(=O)n(C(=O)c3cc(Cl)cc(Cl)c3)c2=O)C1)c1cc(Cl)cc(Cl)c1 | 31.8 µM | 0.79 | 1.03 | 0.93 | 25 µM | 29.5 µM | 1.1 | 91.4 µM | 33.9 µM | 89.1 µM |
| O=c1[nH]cc(F)c(=O)[nH]1 [FLUOROURACIL] | 66 µM | 59.17 | 322 | 0.034 | 3900 µM | 2.3 µM | 1.1 | 2470 µM | 74.6 µM | 7.7 µM |
| N=C(N)c1ccc(OCCCCCOc2ccc(C(=N)N)cc2)cc1 [PENTAMIDINE] | 0.0057 µM | 1.06 | 0.86 | 0.89 | 0.0061 µM | 0.0051 µM | 164 | 1.63 µM | 0.938 µM | 1.9 µM |
